Assay results published in patent US20250091989A1, “SMALL MOLECULE PROTEIN SYNTHESIS MODULATORS” (Interdict Bio, Inc., priority 2023, published 2025).

Columns and labels:
CCND1 = assay: In vitro transcription-translation (IVTT) reporter assay, CCND1 test sequence; format: biochemical; details: HeLa S3 lysate, sfGFP/mCherry ratio, 2 hrs at 30° C.
Source text: (§1) All reporter constructs have been cloned into the pT7CFE1-CHis plasmid (ThermoFisher #88860) using Gibson assembly procedures (NEB #E2611L). The parental pT7CFE1-CHis plasmid contains an EMCV IRES at the 5′UTR for translation initiation, a multiple-cloning site (MCS) for gene insertion, an optional C-terminal His-epitope tag, and polyA sequence in the 3′UTR to regulate mRNA stability. All reporters are designed to be inserted at the MCS to include a red fluorescent protein (mCherry), P2A self-cleaving peptide which releases the preceding mCherry protein product, and a fusion open reading frame containing a 3×FLAG epitope, a peptide sequence of interest (TEST), and green fluorescent protein (sfGFP).
(§2) Construct Plasmid Preparation: All plasmids are isolated from MACH1 cells (ThermoFisher) grown overnight in ampicillin-containing luria broth, and purified using ZymoPure Express Plasmid Midiprep Kit (Zymo Research). Constructs are sequenced verified and diluted to a working concentration of 110 ng/μL.
(§3) HeLa S3 Lysate Preparation: HeLa S3 cell pellets are acquired from Ipracell/Ipratech (Belgium) and shipped as 4 mL frozen cell pellets on dry ice for storage at −80° C. until use. The procedure for lysate preparation is as follows. Prepare 1× Lysis Buffer, cold and stored on ice:
(§4) Each preparation takes 8 cell pellets (4 ml packed volume each, approximately 1.0×10^9 cells per pellet). Thaw cell pellets from −80° C. on ice for 90 mins. Lay pellets horizontally on top of the ice and rotate every 30 mins to ensure even thawing. Once thawed, add 4 mL of cold lysis buffer to each pellet, and using a serological pipet, gently pipet up and down to break up clumps. Incubate resuspended cells in ice for an additional 30 mins (plunged into ice). During 30 min incubation, rinse and RNase-zap (Ambion) glass dounces (use loose pestle “A”), gently dry and place on ice until needed. Prepare RNase-free Eppendorf tubes for spinning and for batch storage. Add batch labels to 1.5-1.7 mL RNase-free microcentrifuge tubes (labeling scheme below). Each batch will have an extra 1.5-1.7 mL RNase-free microcentrifuge tube for 40 μL of lysate, label the top of this tube (labeling scheme below). After 30 min incubation, transfer all 8 mL of cell pellet to dounce. Cell lysis is complete after douncing 100 times. Aliquot cell lysis into 1.5-1.7 mL temporary-microcentrifuge tubes. Place tubes in centrifuge with “fins” out, and spin at 1,200 xg for 5 mins. After the first spin use a 1 mL pipet to resuspend each tube and repeat spin. This acts as an additional lysis step, is more vigorous and increases lysate yield. During second spin get liquid N2 and a fresh conical tube on ice.
(§5) After spin is complete, transfer supernatant (lysate) from microcentrifuge tubes into the 50 mL conical tube and keep on ice. Repeat steps 10-14 for all other cell pellets until completed. Once all cell lysate has been transferred to the 50 mL conical tube pipet to mix so the solution is homogenous. Transfer 1 mL of lysate into batch-labeled microcentrifuge tubes and flash freeze in liquid nitrogen. Be sure to pipet up and down to mix throughout transfer step. Place all tubes in the […] for long-term storage.
(§6) In vitro transcription-translation assay setup: Each assay includes a master mix containing lysate and shared components, a 96-well plate containing compound titrations for testing, a 96-well DNA plate with reporter constructs to be tested, 96-well skirted PCR plates, and 96-well flat-bottom, black, fluorescent assay plates. […]

MYC = assay: In vitro transcription-translation (IVTT) reporter assay, MYC test sequence; format: biochemical; details: HeLa S3 lysate, sfGFP/mCherry ratio, 2 hrs at 30° C.
How it was run: (§7)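 Coupled transcription-translation in HeLa S3 lysate with reporter plasmids encoding mCherry-P2A-3×FLAG-TEST-sfGFP behind an EMCV IRES. Compounds were half-log titrated (30 μM-0.1 μM in DMSO dilution plate) into master mix, then DNA was added. Reactions ran 2 hrs at 30° C, were PBS-quenched and read for fluorescence.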

KLE = assay: Cell viability (CellTiter-Fluor), KLE; format: cell-based; details: Homo sapiens, 24-72 hrs
Experimental: (§8) Count and dispense 2,000-10,000 cells per well (100 μL volume) in black 96-well tissue culture microplate and let cells adhere overnight. Add compound dissolved in 100% DMSO to each well as needed and incubate cells in standard culture conditions for 24-72 hrs. Final DMSO concentration in each well should be 0.1-0.5%. At the desired time point, gently aspirate compound containing media and replace with PBS to wash. Repeat wash step for 2 total washes. Remove PBS and add 100 μL CellTiter-Fluor reagent (Promega) reagent to each well. Seal plate and incubate 1 hr at room temperature with orbital shaking. Analyze fluorescence using plate reader to quantify viable cells compared with vehicle (DMSO) control.

HEK 293T = assay: Cell viability (CellTiter-Fluor), HEK 293T; format: cell-based; details: Homo sapiens, 24-72 hrs
Experimental: as §8

LS411N = assay: Cell viability (CellTiter-Fluor), LS411N; format: cell-based; details: Homo sapiens, LS-411N, 24-72 hrs
Experimental: as §8

NCI-H1915 = assay: Cell viability (CellTiter-Fluor), NCI-H1915; format: cell-based; details: NCI-H1915, 24-72 hrs
Experimental: as §8

MCF7 = assay: Cell viability (CellTiter-Fluor), MCF7; format: cell-based; details: Homo sapiens, MCF7, 24-72 hrs
Experimental: as §8

ALK = assay: In vitro transcription-translation (IVTT) reporter assay, ALK test sequence; format: biochemical; details: HeLa S3 lysate, sfGFP/mCherry ratio, 2 hrs at 30° C.
How it was run: as §7

KRAS G12D = assay: In vitro transcription-translation (IVTT) reporter assay, KRAS G12D test sequence; format: biochemical; details: HeLa S3 lysate, sfGFP/mCherry ratio, 2 hrs at 30° C.
How it was run: as §7

HPAF-II = assay: Cell viability (CellTiter-Fluor), HPAF-II; format: cell-based; details: Homo sapiens, 24-72 hrs
Experimental: as §8

HCC38 = assay: Cell viability (CellTiter-Fluor), HCC38; format: cell-based; details: Homo sapiens, HCC38, 24-72 hrs
Experimental: as §8

KATO-III = assay: Cell viability (CellTiter-Fluor), KATO-III; format: cell-based; details: Homo sapiens, 24-72 hrs
Experimental: as §8

MS751 = assay: Cell viability (CellTiter-Fluor), MS751; format: cell-based; details: MS751, 24-72 hrs
Experimental: as §8

T47D = assay: Cell viability (CellTiter-Fluor), T47D; format: cell-based; details: Homo sapiens, 24-72 hrs
Experimental: as §8

BCL-2 = assay: In vitro transcription-translation (IVTT) reporter assay, BCL-2 test sequence; format: biochemical; details: HeLa S3 lysate, sfGFP/mCherry ratio, 2 hrs at 30° C.
Source text: as §1, §2, §3, §4, §5, §6

MCL-1 = assay: In vitro transcription-translation (IVTT) reporter assay, MCL-1 test sequence; format: biochemical; details: HeLa S3 lysate, sfGFP/mCherry ratio, 2 hrs at 30° C.
Source text: as §1, §2, §3, §4, §5, §6

Row | IC50 (CCND1) [µM] | IC50 (MYC) [µM] | IC50 (NCI-H1915) [µM] | IC50 (MCF7) [µM] | IC50 (ALK) [µM] | IC50 (KRAS G12D) [µM] | IC50 (BCL-2) [µM] | IC50 (MCL-1) [µM] | Structure (SMILES) | IC50 (KLE) [µM] | IC50 (HEK 293T) [µM] | IC50 (LS411N) [µM] | IC50 (HPAF-II) [µM] | IC50 (HCC38) [µM] | IC50 (KATO-III) [µM] | IC50 (MS751) [µM] | IC50 (T47D) [µM]
1 | < 10 | < 10 | 0.25 to 1 | 0.25 to 1 | < 10 | < 10 | – | – | COc1ccc(C[C@H]2NC[C@H](O)[C@H]2OC(=O)Cc2cnc[nH]2)cc1 [V0109, (2R,3S,4S)-4-hydroxy-2-[(4-methoxyphenyl)methyl]pyrrolidin-3-yl 2-(3H-imidazol-4-yl)acetate] | 0.25 to 1 | < 0.25 | 0.25 to 1 | 0.25 to 1 | – | – | – | –
2 | 20 to 30 | > 30 | – | – | – | – | 20 to 30 | 20 to 30 | COc1ccc(C[C@H]2NC[C@H](O)[C@H]2OC(C)=O)cc1Br [V187263] | – | – | – | – | – | – | – | –
3 | < 10 | < 10 | – | – | – | – | < 10 | < 10 | CC(=O)O[C@@H]1[C@@H](O)CN[C@@H]1Cc1ccc(-c2nnn(C)c2Cl)cc1 [V187855] | – | – | – | – | – | – | – | –
4 | < 10 | < 10 | – | – | – | – | < 10 | < 10 | CC(=O)O[C@@H]1[C@@H](O)CN[C@@H]1Cc1ccc(-c2cn(C)nn2)cc1 [V187748] | – | – | – | – | – | – | – | –
5 | < 10 | < 10 | – | – | – | – | < 10 | < 10 | CC(=O)O[C@@H]1[C@@H](O)CN[C@@H]1Cc1ccc(-c2nn[nH]c2Cl)cc1 [V187854] | – | – | – | – | – | – | – | –
6 | < 10 | < 10 | – | – | < 10 | < 10 | – | < 10 | COc1ccc(C[C@H]2NC[C@H](O)[C@H]2OC(=O)CC(C)C)cc1 [V187035, (2R,3S,4S)-4-hydroxy-2-[(4-methoxyphenyl)methyl]pyrrolidin-3-yl 3-methylbutanoate] | – | – | – | – | – | – | – | –
7 | < 10 | < 10 | < 0.25 | < 0.25 | < 10 | < 10 | – | – | COc1ccc(C[C@H]2NC[C@H](O)[C@H]2OC(=O)Cc2cscn2)cc1 [V187049] | < 0.25 | < 0.25 | < 0.25 | < 0.25 | < 0.25 | < 0.25 | < 0.25 | < 0.25
8 | < 10 | < 10 | – | – | – | – | < 10 | < 10 | CC(=O)O[C@@H]1[C@@H](O)CN[C@@H]1Cc1ccc(-c2cn(C3CCOCC3)nn2)cc1 [V187838] | – | – | – | – | – | – | – | –
9 | < 10 | < 10 | – | – | – | – | < 10 | < 10 | CC(=O)O[C@@H]1[C@@H](O)CN[C@@H]1Cc1ccc(-c2nnn(Cc3ccccc3)c2Cl)cc1 [V187856] | – | – | – | – | – | – | – | –

Row | Structure (SMILES) | IC50 (CCND1) [µM] | IC50 (MYC) [µM] | IC50 (NCI-H1915) [µM] | IC50 (MCF7) [µM] | IC50 (ALK) [µM] | IC50 (KRAS G12D) [µM] | IC50 (BCL-2) [µM] | IC50 (MCL-1) [µM] | IC50 (KLE) [µM] | IC50 (HEK 293T) [µM] | IC50 (LS411N) [µM] | IC50 (HPAF-II) [µM] | IC50 (HCC38) [µM] | IC50 (KATO-III) [µM] | IC50 (MS751) [µM] | IC50 (T47D) [µM]
10 | COc1ccc(C[C@H]2NC[C@H](O)[C@H]2OC(=O)CC2CC(F)(F)C2)cc1 [V187043, (2R,3S,4S)-4-hydroxy-2-[(4-methoxyphenyl)methyl]pyrrolidin-3-yl 2-(3,3-difluorocyclobutyl)acetate; trifluoroacetic acid] | – | < 10 | 0.25 to 1 | < 0.25 | < 10 | < 10 | – | – | < 0.25 | < 0.25 | < 0.25 | 0.25 to 1 | < 0.25 | 0.25 to 1 | < 0.25 | < 0.25
